Results from article PMC7693880, “Preparation and Evaluation of Amino Acid Conjugates of Celecoxib as Prodrugs to Improve the Pharmacokinetic and Therapeutic Properties of Celecoxib” (Pharmaceutics, 2020).
Counter-ions that a name gives are not always drawn.

Key:
[1] = Apparent distribution coefficient (logD6.8) measurement, 1-octanol / pH 6.8 isotonic phosphate buffer; type: physicochemical; conditions: 37 °C; for logD: pH 6.8, 1-octanol / pH 6.8 isotonic phosphate buffer, read-out: Log D6.8 (apparent distribution coefficient)
Method: For this study, 1-octanol and pH 6.8 isotonic phosphate buffer (IPB) were pre-saturated with IPB and 1-octanol, respectively. 1-octanol (10 mL) was added to 500 μM of celecoxib, A1C, or N-GA1C in 10 mL IPB. The mixture was shaken for 1 h and left at 37 °C for 3 h. The concentration of celecoxib, A1C, G1C, or N-GA1C in the aqueous phase was analyzed by HPLC. The apparent partition coefficients were calculated using the equation (Co − Cw)/Cw, where Co and Cw represent the initial and equilibrium concentration of the drug in the aqueous phase, respectively.

[2] = Pharmacokinetic study after oral or intravenous administration; type: in vivo, Sprague Dawley rats; conditions: rat; for increase of the absolute BA of celecoxib: 20 mg/kg
Method: Blood samples were collected from the jugular vein using a heparinized syringe at predetermined times. Heparinized blood samples were immediately centrifuged at 6000× g for 5 min. Five-fold volume of ethyl acetate was mixed with plasma, centrifugation was performed at 6000× g for 5 min, and 1 mL of the organic solvent was evaporated. The residues were mixed with 0.1 mL of IPB and centrifuged at 20,000× g for 10 min at 4 °C. The concentration of celecoxib or N-GA1C in the samples was determined by HPLC. PK profiling was performed using PKsolver. Absolute BA and relative BA were calculated using the following equations: Absolute BA (F, %) = ((AUC0–∞)PO/dose PO)/((AUC0–∞)IV/dose IV); Relative BA (%) = ((AUC0–∞)A/dose A)/((AUC0–∞)B/dose B).

[3] = tested on: carrageenan-induced paw edema; assay: Carrageenan-induced rat paw edema model; type: in vivo, Sprague Dawley rats; conditions: oral 10 mg/kg (equivalent mass of celecoxib)
Method: Six-week-old male Sprague Dawley rats (250–260 g) were orally administered celecoxib (10 mg/kg), A1C (equivalent mass of celecoxib), G1C (equivalent mass of celecoxib), N-GA1C (equivalent mass of celecoxib), or IPB as a control. After 1 h, 0.1 mL of carrageenan (1%) was injected into the hind paw of the rats. Carrageenan-induced increase in paw volume (paw edema) was measured at predetermined time points (0, 3, 6, 12, and 24 h). The paw volume of rats up to the knee joint was measured using a plethysmometer. The degree of inhibition of paw edema (%) at each time point was calculated using the following equation: (Control volume − treatment group volume)/Control paw volume × 100.

[4] = Drug release study in cecal contents; type: in vitro ADME, Sprague Dawley rats; conditions: incubation with cecal contents, after 24 h
Method: Drug release study was performed with the celecoxib derivatives as described previously. Six-week-old male Sprague Dawley rats (250–260 g) were sacrificed using CO2, and a midline incision was made. The contents of the proximal small intestine, distal small intestine, and cecum, liver homogenate, or blood plasma were collected and suspended in IPB (20% (w/v)). A1C, G1C, or N-GA1C in the buffer (0.5 mL, 1 mM) was mixed with 0.5 mL of the suspension and then incubated at 37 °C under nitrogen gas. At the predetermined time points, the samples were extracted with 0.5 mL of ethyl acetate followed by centrifugation at 6000× g for 5 min. Methanol (1.0 mL) was added to the residue obtained from the evaporation of 0.1 mL of the organic layer. The solution was centrifuged at 20,000× g at 4 °C for 10 min. The concentrations of celecoxib, A1C, G1C, and N-GA1C in 20 μL of the supernatant were determined by HPLC.

[5] = male, Sprague Dawley, plasma, IV, 10 mg/kg

| SMILES | melting point [°C] | logD [1] | volume reduction of paw edema ([3]; at 6 h) [%] | volume reduction of paw edema ([3]; at 24 h) [%] | conversion to celecoxib [4] | increase of the absolute BA of celecoxib ([2]; oral, vs oral celecoxib) | other results |
| --- | --- | --- | --- | --- | --- | --- | --- |
| Cc1ccc(-c2cc(C(F)(F)F)nn2-c2ccc(S(=O)(=O)NC(=O)[C@@H](N)CC(=O)O)cc2)cc1 (as salt: salt) [A1C, aspart-1-yl celecoxib] | 134 to 137 | – | – | – | – | – | – |
| Cc1ccc(-c2cc(C(F)(F)F)nn2-c2ccc(S(=O)(=O)NC(=O)C(N)CCC(=O)O)cc2)cc1 (stereo not shown) (as salt: salt) [G1C, glutam-1-yl celecoxib] | 110 to 115 | – | – | – | – | – | – |
| Cc1ccc(-c2cc(C(F)(F)F)nn2-c2ccc(S(=O)(=O)NC(=O)C(CC(=O)O)NC(=O)CN)cc2)cc1 (stereo not shown) [N-GA1C, N-glycyl-aspart-1-yl celecoxib] | – | -0.13 | 32.42 ± 2.50 | 78.96 ± 1.56 | – | – | plasma concentration of N-GA1C ([2]; oral N-GA1C 10 mg/kg, for 24 h): not detected |
| Cc1ccc(-c2cc(C(F)(F)F)nn2-c2ccc(S(N)(=O)=O)cc2)cc1 [Celecoxib] | – | 4.01 | 42.06 ± 4.69 | 20.99 ± 2.791 | – | – | Vd [2, 5]: 1.04 L/kg; clearance [2, 5]: 8.01 mL/min/kg; half-life [2, 5]: 1.5 h; AUC(0-inf) ([2]; male, Sprague Dawley, IV, 10 mg/kg, celecoxib in plasma): 6120 ± 520 ng·h/mL; AUC(0-t) ([2]; male, Sprague Dawley, IV, 10 mg/kg, celecoxib in plasma, read-out: AUC0–24): 5990 ± 440 ng·h/mL |
| Cc1ccc(-c2cc(C(F)(F)F)nn2-c2ccc(S(=O)(=O)NC(=O)C(N)CCC(=O)O)cc2)cc1 (stereo not shown) [G1C, glutam-1-yl celecoxib] | – | 0.8 | – | – | partially converted to celecoxib | three | Log D6.8 (apparent distribution coefficient) [1]: 0.81 |
| Cc1ccc(-c2cc(C(F)(F)F)nn2-c2ccc(S(=O)(=O)NC(=O)[C@@H](N)CC(=O)O)cc2)cc1 [A1C, aspart-1-yl celecoxib] | – | 0.6 | – | – | partially converted to celecoxib | approximately two | increase in absolute BA ([2]; oral, 10 mg/kg, vs oral celecoxib): no increase |
